Patent publication US8865714B2, “Piperazine compound capable of inhibiting prostaglandin D synthase” (Taiho Pharmaceutical Co., Ltd., priority 2009, dated 2014)
pIC50: −log10 of the molar value. Like-named read-outs stand apart in the source and are kept apart here.

Target: human H-PGDS (Homo sapiens (Human), UniProt O60760)
Assay: Hematopoietic prostaglandin D synthase (H-PGDS) inhibiting action
Assay type: biochemical
Settings: for inhibition at 0.1 µM / H-PGDS inhibition rate (%): compound at 0.1 μM, relative to the control group; for inhibition at 0.1 µM: read-out: H-PGDS inhibition rate (%)
Experimental: More specifically, the reaction mixture (49 μL) containing 100 mM Tris-HCl (pH 8.0), 1 mM reduced glutathione, 0.1 mg/mL γ-globulin, and human H-PGDS (q.s.), and a compound (final concentration: 0.01-100 μM) was preincubated at 25° C. for 5 minutes. Note that a DMSO solution (final concentration: 1%) was added to the solvent control group. Subsequently, 1 μL of [14C] prostaglandin H2 (final concentration: 10 μM) was added to start the reaction. One minute after the start of the reaction, 250 μL of a reaction stopper solution (diethylether/methanol/1 M citric acid (30/4/1) at a temperature of −20° C. was added to stop the reaction. After the reaction was stopped, 50 μL of the upper layer portion (organic solvent phase) was applied to a TLC plate and developed at −20° C. for 45 minutes (developing solvent: diethylether/methanol/acetic acid (90/2/1)). After drying the TLC plate, the TLC plate was exposed to an imaging plate for 1 to 24 hours, and the radioactivity corresponding to prostaglandin D2 (PGD2) was analyzed using an image analyzer (produced by Fujifilm Corporation).

[1] = human H-PGDS, [14C] prostaglandin H2 10 μM
[2] = human H-PGDS, [14C] prostaglandin H2 10 μM, read-out: IC50

human H-PGDS, sequence (O60760 whole entry): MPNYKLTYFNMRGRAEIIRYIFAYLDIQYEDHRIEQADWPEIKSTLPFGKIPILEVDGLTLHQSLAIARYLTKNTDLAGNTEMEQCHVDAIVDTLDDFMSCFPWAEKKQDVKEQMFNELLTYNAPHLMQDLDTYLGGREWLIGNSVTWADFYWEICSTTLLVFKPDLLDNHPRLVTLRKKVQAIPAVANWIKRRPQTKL

Row | inhibition at 0.1 µM [1] | Compound | H-PGDS inhibition rate (%) [1] | pIC50 [2] | pIC50
1 | 68.3% | Cn1cccc1C(=O)N1CCN(C(=O)Nc2ccc(N3CCC(CCN4CCOCC4)CC3)cc2)CC1 [Example 6, 4-((1-methylpyrrol-2-yl)-carbonyl)-N-(4-(4-morpholinoethylpiperidin-1-yl)-phenyl)-1-piperazinecarboxamide] |  |  | 
2 | 73.6% | Cn1cccc1C(=O)N1CCN(C(=O)Nc2ccc(N3CCC(C(=O)N4CCCCC4)CC3)cc2)CC1 [Example 14, 4-((1-methylpyrrol-2-yl)-carbonyl)-N-(4-(4-piperidin-1-yl-carbonylpiperidin-1-yl)-phenyl)-1-piperazinecarboxamide] |  |  | 
3 | 55.5% | Cn1cccc1C(=O)N1CCN(C(=O)Nc2ccc(N3CCC(CCn4cncn4)C3)cc2)CC1 (stereo not drawn) [Example 5, 4-((1-methylpyrrol-2-yl)-carbonyl)-N-(4-(3-(2-(1,2,4-triazol-1-yl)-ethyl)pyrrolidin-1-yl)-phenyl)-1-piperazinecarboxamide] |  |  | 
4 | 66.7% | Cn1cccc1C(=O)N1CCN(C(=O)Nc2ccc(N3CCC(CCn4ccnn4)CC3)cc2)CC1 [Example 7, 4-((1-methylpyrrol-2-yl)-carbonyl)-N-(4-(4-(2-(1,2,3-triazol-1-yl)-ethyl)piperidin-1-yl)-phenyl)-1-piperazinecarboxamide] |  |  | 
5 | 61.7% | Cn1cccc1C(=O)N1CCN(C(=O)Nc2ccc(N3CCC(C(=O)NCc4cccnc4)CC3)cc2)CC1 [Example 17, 4-((1-methylpyrrol-2-yl)-carbonyl)-N-(4-(4-(pyridin-3-ylmethylcarbamoyl)piperidin-1-yl)-phenyl)-1-piperazinecarboxamide] |  |  | 
6 | 61.1% | Cn1cccc1C(=O)N1CCN(C(=O)Nc2ccc(N3CCC(C(=O)NCCN4CCOCC4)CC3)cc2)CC1 [Example 16, 4-((1-methylpyrrol-2-yl)-carbonyl)-N-(4-(4-(2-morpholinoethylcarbamoyl)piperidin-1-yl)-phenyl)-1-piperazinecarboxamide] |  |  | 
7 | 72.7% | Cn1cccc1C(=O)N1CCN(C(=O)Nc2ccc(N3CCC(CCCn4ccnn4)CC3)cc2)CC1 [Example 12, 4-((1-methylpyrrol-2-yl)-carbonyl)-N-(4-(4-(3-(1,2,3-triazol-1-yl)-propyl)piperidin-1-yl)-phenyl)-1-piperazinecarboxamide] |  |  | 
8 | 54.8% | Cc1nc(C)n(CCC2CCN(c3ccc(NC(=O)N4CCN(C(=O)c5cccn5C)CC4)cc3)CC2)n1 [Example 9, 4-((1-methylpyrrol-2-yl)-carbonyl)-N-(4-(4-(2-(3,5-dimethyl-1,2,4-triazol-1-yl)-ethyl)piperidin-1-yl)-phenyl)-1-piperazinecarboxamide] |  |  | 
9 | 61.5% | Cn1cccc1C(=O)N1CCN(C(=O)Nc2ccc(N3CCC(CN4CCOCC4)CC3)cc2)CC1 [Example 4, 4-((1-methylpyrrol-2-yl)-carbonyl)-N-(4-(4-morpholinomethylpiperidin-1-yl)-phenyl)-1-piperazinecarboxamide] |  |  | 
10 | 58.9% | Cn1cccc1C(=O)N1CCN(C(=O)Nc2ccc(N3CCC(CCn4cncn4)CC3)cc2)CC1 [Example 8, 4-((1-methylpyrrol-2-yl)-carbonyl)-N-(4-(4-(2-(1,2,4-triazol-1-yl)-ethyl)piperidin-1-yl)-phenyl)-1-piperazinecarboxamide] |  | 7.21 | 
11 | 74.3% | Cn1cccc1C(=O)N1CCN(C(=O)Nc2ccc(N3CCC(CCn4cccn4)CC3)cc2)CC1 [Example 10, 4-((1-methylpyrrol-2-yl)-carbonyl)-N-(4-(4-(2-(pyrazol-1-yl)-ethyl)piperidin-1-yl)-phenyl)-1-piperazinecarboxamide] |  |  | 
12 | 61.3% | CN1CCN(C(=O)C2CCN(c3ccc(NC(=O)N4CCN(C(=O)c5cccn5C)CC4)cc3)CC2)CC1 [Example 15, 4-((1-methylpyrrol-2-yl)-carbonyl)-N-(4-(4-(4-methylpiperazin-1-yl-carbonyl)piperidin-1-yl)-phenyl)-1-piperazinecarboxamide] |  |  | 

The next lines start with the compound.

Row | Compound | inhibition at 0.1 µM [1] | H-PGDS inhibition rate (%) [1] | pIC50 [2] | pIC50
13 | O=C(Nc1ccc(N2CCC(C(=O)N3CCOCC3)CC2)cc1)N1CCN(C(=O)c2ccno2)CC1 [Reference Example 8, 4-((isoxazol-5-yl)-carbonyl)-N-(4-(4-morpholin-1-yl-carbonylpiperidin-1-yl)-phenyl)-1-piperazinecarboxamide] |  | −6.6% | < 6.00 | 
14 | O=C(Nc1ccc(C(F)(F)F)cc1)N1CCN(C(=O)c2cccc(F)n2)CC1 [Reference Example 18, 4-(6-fluoropyridine-2-carbonyl)piperazine-1-carboxylic acid-(4-trifluoromethylphenyl)amide] |  |  |  | < 6.00
15 | O=C(Nc1ccc(N2CCC(C(=O)N3CCOCC3)CC2)cc1)N1CCN(C(=O)c2cccs2)CC1 [Reference Example 4, 4-((thiophen-2-yl)-carbonyl)-N-(4-(4-morpholin-1-yl-carbonylpiperidin-1-yl)-phenyl)-1-piperazinecarboxamide] |  | 18.0% | 6.47 | 
16 | 4-((1-methylpyrrol-2-yl)-carbonyl)-N-(4-(4-(3-(1,2,4-triazol-1-yl-propyl)piperidin-1-yl)-phenyl)-1-piperazinecarboxamide [Example 11] |  | 71.3% | 7.34 | 
17 | O=C(Nc1ccc(N2CCC(C(=O)N3CCOCC3)CC2)cc1)N1CCN(C(=O)c2ccoc2)CC1 [Reference Example 7, 4-((furan-3-yl)-carbonyl)-N-(4-(4-morpholin-1-yl-carbonylpiperidin-1-yl)-phenyl)-1-piperazinecarboxamide] |  | −4.2% | < 6.00 | 
18 | Cn1ccnc1C(=O)N1CCN(C(=O)Nc2ccc(N3CCC(C(=O)N4CCOCC4)CC3)cc2)CC1 [Reference Example 9, 4-((1-methylimidazol-2-yl)-carbonyl)-N-(4-(4-morpholin-1-yl-carbonylpiperidin-1-yl)-phenyl)-1-piperazinecarboxamide] |  | −2.8% | < 6.00 | 
19 | Cn1ccc(C(=O)N2CCN(C(=O)Nc3ccc(N4CCC(C(=O)N5CCOCC5)CC4)cc3)CC2)c1 [Reference Example 3, 4-((1-methylpyrrol-3-yl)-carbonyl)-N-(4-(4-morpholin-1-yl-carbonylpiperidin-1-yl)-phenyl)-1-piperazinecarboxamide] |  | −4.8% | < 6.00 | 
20 | O=C(Nc1ccc(N2CCC(C(=O)N3CCOCC3)CC2)cc1)N1CCN(C(=O)c2ccccc2)CC1 [Reference Example 11, 4-(benzoyl)-N-(4-(4-morpholin-1-yl-carbonylpiperidin-1-yl)-phenyl)-1-piperazinecarboxamide] |  | 15.8% | 6.36 | 
21 | Cn1cccc1C(=O)N1CCN(C(=O)Nc2ccc(N3CCC(O)CC3)cc2)CC1 [Example 1, N-(4-(4-hydroxypiperidin-1-yl)-phenyl)-4-((1-methylpyrrol-2-yl)-carbonyl)-1-piperazinecarboxamide] | 62.2% |  | 7.24 | 
22 | 4-((1-ethylpyrrol-2-yl)-carbonyl)-N-(4-(4-morpholin-1-yl-carbonylpiperidin-1-yl)-phenyl)-1-piperazinecarboxamide [Example 13] |  | 51.8% | 7.04 | 
23 | O=C(Nc1ccc(N2CCC(C(=O)N3CCOCC3)CC2)cc1)N1CCN(C(=O)c2ccco2)CC1 [Reference Example 6, 4-((furan-2-yl)-carbonyl)-N-(4-(4-morpholin-1-yl-carbonylpiperidin-1-yl)-phenyl)-1-piperazinecarboxamide] |  | −2.7% | < 6.00 | 
24 | O=C(Nc1ccc(N2CCC(C(=O)N3CCOCC3)CC2)cc1)N1CCN(C(=O)c2ccsc2)CC1 [Reference Example 5, 4-((thiophen-3-yl)-carbonyl)-N-(4-(4-morpholin-1-yl-carbonylpiperidin-1-yl)-phenyl)-1-piperazinecarboxamide] |  | 9.4% | 6.14 | 
25 | 4-((((1-methylpyrrol-2-yl)-carbonyl)-1-piperazinyl)carbonyl)amino-4-phenylpiperidine-4-carboxylic acid [Example 2] |  | 53.7% | 7.07 | 
26 | O=C(Nc1ccc(N2CCC(C(=O)N3CCOCC3)CC2)cc1)N1CCN(C(=O)C2CCCC2)CC1 [Reference Example 10, 4-(cyclopentylcarbonyl)-N-(4-(4-morpholin-1-yl-carbonylpiperidin-1-yl)-phenyl)-1-piperazinecarboxamide] |  | −2.2% | < 6.00 | 
27 | 4-((1-methylindol-2-yl)-carbonyl)-N-(4-(4-morpholin-1-yl-carbonylpiperidin-1-yl)-phenyl)-1-piperazinecarboxamide [Reference Example 12] |  | −0.4% | < 6.00 | 
